Data: patent publication US11344510B2, “Arylcyclohexylamine derivatives and their use in the treatment of psychiatric disorders” (Gilgamesh Pharmaceuticals, Inc., priority 2019, dated 2022)

Columns and labels:
[1] = HLM stability (High Activity); format: in vitro ADME; conditions: both sexes, human, liver microsomes, pH 7.4, Condition 2 (High Activity), 1.0 mg protein/mL
Method: (§1) HLM Stability (High Activity). Pooled HLM from adult male and female donors (XenoTech H0630) were used. Microsomal incubations were carried out in 96-well plates in 5 aliquots of 40 μL, each (one for each time point). Liver microsomal incubation medium consisted of PBS (100 mM, pH 7.4), MgCl2 (3.3 mM), NADPH (3 mM), glucose-6-phosphate (5.3 mM), and glucose-6-phosphate dehydrogenase (0.67 units/mL), with 1.0 mg of liver microsomal protein per mL. Control incubations were performed by replacing the NADPH-cofactor system with PBS. Test compounds (1 μM, final solvent concentration 1.6%) were incubated with microsomes at 37° C., shaking at 100 rpm. Incubations were performed in duplicate. Five time points over 60 minutes were analyzed. The reactions were stopped by adding 12 volumes of 90% acetonitrile-water to incubation aliquots, followed by protein sedimentation by centrifugation at 5500 rpm for 3 minutes. Supernatants were analyzed for parent compound remaining using a fit-for-purpose liquid chromatography-tandem mass spectrometry (LC-MS/MS) method, with authentic samples of each analyte used for identity confirmation.
(§2) Data Analysis. The elimination constant (kel), half-life (t1/2) and intrinsic clearance (Clint) were determined in a plot of […] versus time, using linear regression analysis.

[2] = MLM stability (High Activity); format: in vitro ADME, BALB/c mice; conditions: male, BALB/c, mouse, liver microsomes, pH 7.4, Condition 2 (High Activity), 1.0 mg protein/mL
Method: as §1, with “MLM” for “HLM”, “from” for “from adult”, “BALB/c mice” for “and female donors”, “M3000)” for “H0630)”, “μL” for “μL,”, “9” for “12”
as §2

[3] = RLM stability (High Activity); format: in vitro ADME, Sprague Dawley rats; conditions: male, Sprague Dawley, rat, liver microsomes, pH 7.4, Condition 2 (High Activity), 1 μM, 1.0 mg protein/mL
Method: as §1, with “RLM” for “HLM”, “from” for “from adult”, “Sprague Dawley rats” for “and female donors”, “R1000, lot #1910100)” for “H0630)”, “μL” for “μL,”, “9” for “12”
as §2

[4] = target: MK-801 binding site of the N-methyl-D-aspartate receptor (NMDAR); test: NMDAR radioligand binding with [3H]MK-801, Method B; parameters: species or system Sprague Dawley rat; conditions: MK-801 site, Method B, male Sprague Dawley rat cortex, 5.0 nM [3H]MK-801; read-out: NMDAR Ki ± SEM
Method: Radioligand Binding—Method B. Affinity of the test compounds for NMDAR was determined in radioligand binding experiments with [^3H]MK-801 by WuXi AppTec (Hong Kong) Limited, under the conditions described in Table 13.

[5] = target: T1, serotonin transporter (SERT) (Homo sapiens, UniProt P31645); test: Fluorescent substrate uptake inhibition, SERT; format: cell-based; conditions: for inhibition at 10 µM: HEK293 cells expressing SERT
T1 construct: expressed in transfected cells; host or cells: HEK293
T1 sequence (P31645 whole entry, species assumed): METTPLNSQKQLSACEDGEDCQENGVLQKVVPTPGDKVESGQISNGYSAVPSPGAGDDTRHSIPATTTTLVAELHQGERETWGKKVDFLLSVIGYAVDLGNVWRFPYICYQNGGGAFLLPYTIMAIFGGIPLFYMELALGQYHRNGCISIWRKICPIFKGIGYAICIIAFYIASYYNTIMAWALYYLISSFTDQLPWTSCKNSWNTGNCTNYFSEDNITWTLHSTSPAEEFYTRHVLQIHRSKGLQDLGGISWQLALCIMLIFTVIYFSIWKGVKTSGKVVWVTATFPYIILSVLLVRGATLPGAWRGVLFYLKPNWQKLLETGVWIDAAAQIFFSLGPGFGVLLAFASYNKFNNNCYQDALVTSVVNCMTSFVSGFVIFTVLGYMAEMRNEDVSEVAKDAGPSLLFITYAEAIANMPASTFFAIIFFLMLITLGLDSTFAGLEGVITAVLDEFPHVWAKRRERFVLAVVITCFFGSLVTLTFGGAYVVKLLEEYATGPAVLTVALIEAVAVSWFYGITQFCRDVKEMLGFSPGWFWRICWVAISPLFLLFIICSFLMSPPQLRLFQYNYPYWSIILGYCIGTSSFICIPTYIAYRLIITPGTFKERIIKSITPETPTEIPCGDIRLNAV
Method: (§3) Uptake Inhibition. The ability of test compounds to block monoamine uptake by SERT, NET, DAT, and VMAT2 was determined using the Neurotransmitter Transporter Uptake Assay Kit manufactured by Molecular Devices (Cat #R8173). Briefly, stably transfected cells expressing the MAT of interest (HEK293 cells for SERT and NET; CHO cells for DAT) were grown and plated into 384-well plates at a concentration of 20,000 cells per well. Plates were then incubated for 16-20 h at 37° C. and 5% CO2. The medium was then aspirated and replaced with 25 μL of assay buffer (20 mM HEPES in HBSS, containing 0.1% BSA) containing the test compounds at the appropriate concentrations. Plates were then centrifuged at 300 rpm for 15 s and then incubated at 37° C. for 30 minutes. At this time, 25 μL of the proprietary fluorescent dye solution was added, the plates were incubated at 37° C. for 60 minutes, and then fluorescence was quantified on a plate reader (excitation wavelength=440 nm, emission wavelength=520 nm). The proprietary dye solution contains a mixture of 1) a fluorescent dye that mimics the endogenous substrates of MATs and is thereby actively transported to the intracellular compartment in the absence of an inhibitor and 2) a masking dye that inhibits the fluorescence of dye 1 in the extracellular compartment. Therefore, the overall fluorescence of the system increases as the fluorescent dye is transported into the cells.

[6] = target: T2, norepinephrine transporter (NET) (Homo sapiens, UniProt P23975); test: Fluorescent substrate uptake inhibition, NET; format: cell-based; conditions: for inhibition at 10 µM: HEK293 cells expressing NET
T2 construct: expressed in transfected cells; host or cells: HEK293
T2 sequence (P23975 whole entry, species assumed): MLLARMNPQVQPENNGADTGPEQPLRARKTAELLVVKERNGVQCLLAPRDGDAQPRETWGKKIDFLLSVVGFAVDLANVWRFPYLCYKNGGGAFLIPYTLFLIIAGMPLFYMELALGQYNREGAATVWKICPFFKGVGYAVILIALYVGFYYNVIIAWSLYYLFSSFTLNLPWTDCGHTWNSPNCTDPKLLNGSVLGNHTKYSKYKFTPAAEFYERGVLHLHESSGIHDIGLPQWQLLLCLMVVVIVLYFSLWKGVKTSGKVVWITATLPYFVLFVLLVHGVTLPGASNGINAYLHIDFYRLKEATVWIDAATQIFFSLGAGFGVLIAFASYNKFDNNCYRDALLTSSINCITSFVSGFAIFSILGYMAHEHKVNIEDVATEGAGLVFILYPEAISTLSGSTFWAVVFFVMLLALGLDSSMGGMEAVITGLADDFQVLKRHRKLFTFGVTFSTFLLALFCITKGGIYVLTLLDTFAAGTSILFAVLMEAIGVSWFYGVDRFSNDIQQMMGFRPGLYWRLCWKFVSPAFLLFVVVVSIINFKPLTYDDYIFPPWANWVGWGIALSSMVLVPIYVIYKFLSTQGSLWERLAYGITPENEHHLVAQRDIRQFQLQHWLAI
Method: as §3

[7] = target: T3, dopamine transporter (DAT) (Homo sapiens, UniProt Q01959); test: Fluorescent substrate uptake inhibition, DAT; format: cell-based; conditions: for inhibition at 10 µM: CHO cells expressing DAT
T3 construct: expressed in transfected cells; host or cells: CHO (uptake)
T3 sequence (Q01959 whole entry, species assumed): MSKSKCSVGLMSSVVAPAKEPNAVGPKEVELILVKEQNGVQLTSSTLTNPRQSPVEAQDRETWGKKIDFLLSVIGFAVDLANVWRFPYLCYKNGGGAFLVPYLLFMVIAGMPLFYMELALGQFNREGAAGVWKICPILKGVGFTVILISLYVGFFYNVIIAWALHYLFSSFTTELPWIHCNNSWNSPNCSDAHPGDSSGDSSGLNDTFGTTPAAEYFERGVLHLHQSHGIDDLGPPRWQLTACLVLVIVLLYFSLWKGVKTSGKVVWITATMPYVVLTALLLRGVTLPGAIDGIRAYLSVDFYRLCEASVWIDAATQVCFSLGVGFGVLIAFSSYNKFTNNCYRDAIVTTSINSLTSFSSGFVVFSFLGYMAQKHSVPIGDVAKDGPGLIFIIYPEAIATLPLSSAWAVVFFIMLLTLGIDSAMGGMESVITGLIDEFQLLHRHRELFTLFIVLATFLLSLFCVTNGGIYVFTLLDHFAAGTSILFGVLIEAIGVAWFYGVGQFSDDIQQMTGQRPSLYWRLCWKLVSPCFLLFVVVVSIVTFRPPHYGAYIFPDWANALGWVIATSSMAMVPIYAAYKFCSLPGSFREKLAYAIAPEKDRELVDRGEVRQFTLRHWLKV
Method: as §3

[8] = target: T4, vesicular monoamine transporter 2 (VMAT2) (Homo sapiens, UniProt Q05940); test: Fluorescent substrate uptake inhibition, VMAT2; format: cell-based; conditions: for inhibition at 10 µM: transfected cells
T4 construct: expressed in transfected cells
T4 sequence (Q05940 whole entry, species assumed): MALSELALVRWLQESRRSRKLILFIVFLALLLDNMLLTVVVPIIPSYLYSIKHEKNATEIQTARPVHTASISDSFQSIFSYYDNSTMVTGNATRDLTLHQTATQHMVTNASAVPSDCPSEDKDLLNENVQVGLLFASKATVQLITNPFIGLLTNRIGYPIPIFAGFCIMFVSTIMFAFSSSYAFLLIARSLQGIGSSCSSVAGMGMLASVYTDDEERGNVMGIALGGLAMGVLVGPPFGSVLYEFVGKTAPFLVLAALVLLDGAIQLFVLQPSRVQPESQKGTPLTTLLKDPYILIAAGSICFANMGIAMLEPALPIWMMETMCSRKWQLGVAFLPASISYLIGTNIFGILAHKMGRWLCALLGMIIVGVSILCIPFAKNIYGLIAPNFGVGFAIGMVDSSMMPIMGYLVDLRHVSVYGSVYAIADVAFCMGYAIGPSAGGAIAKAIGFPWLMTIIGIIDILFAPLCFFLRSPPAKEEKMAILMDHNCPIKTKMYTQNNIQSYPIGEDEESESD
Method: as §3

[9] = HLM stability (Low Activity, Alternative Method); format: in vitro ADME; conditions: both sexes, human, liver microsomes, pH 7.4, Condition 1 column, values marked *: Low Activity, 0.50 mg protein/mL
Method: (§4) HLM Stability (Low Activity, Alternative Method). Pooled HLM from adult male and female donors (Corning 452117) were used. Microsomal incubations were carried out in multi-well plates. Liver microsomal incubation medium consisted of PBS (100 mM, pH 7.4), MgCl2 (1 mM), and NADPH (1 mM), with 0.50 mg of liver microsomal protein per mL. Control incubations were performed by replacing the NADPH-cofactor system with PBS. Test compounds (1 μM, final solvent concentration 1.0%) were incubated with microsomes at 37° C. with constant shaking. Six time points over 60 minutes were analyzed, with 60 μL aliquots of the reaction mixture being drawn at each time point. The reaction aliquots were stopped by adding 180 μL of cold (4° C.) acetonitrile containing 200 ng/mL tolbutamide and 200 ng/mL labetalol as internal standards (IS), followed by shaking for 10 minutes, and then protein sedimentation by centrifugation at 4000 rpm for 20 minutes at 4° C. Supernatant samples (80 μL) were diluted with water (240 μL) and analyzed for parent compound remaining using a fit-for-purpose liquid chromatography-tandem mass spectrometry (LC-MS/MS) method.
as §2

[10] = MLM stability (Low Activity); format: in vitro ADME, CD-1 mice; conditions: male, CD-1, mouse, liver microsomes, pH 7.4, Condition 1 (Low Activity), 0.50 mg protein/mL
Method: as §4, with “MLM” for “HLM”, “Activity).” for “Activity, Alternative Method).”, “from” for “from adult”, “CD-1 mice (XenoTech M1000)” for “and female donors (Corning 452117)”
as §2

[11] = RLM stability (Low Activity); format: in vitro ADME, Sprague Dawley rats; conditions: male, Sprague Dawley, rat, liver microsomes, pH 7.4, Condition 1 (Low Activity), 0.50 mg protein/mL
Method: as §4, with “RLM” for “HLM”, “Activity).” for “Activity, Alternative Method).”, “from” for “from adult”, “Sprague Dawley rats (XenoTech R1000)” for “and female donors (Corning 452117)”
as §2

Row | Compound | Ki [4] | inhibition at 10 µM [5] | inhibition at 10 µM [6] | inhibition at 10 µM [7] | inhibition at 10 µM [8] | half-life at 1 μM [9] | microsomal CLint at 1 μM [9] | half-life at 1 μM [10] | microsomal CLint at 1 μM [10] | half-life at 1 μM [11] | microsomal CLint at 1 μM [11] | IC50 [5] | IC50 [6] | IC50 [7] | IC50 [8] | further results
1 | CN[C@@]1(c2cccc(F)c2)CCCCC1=O [Compound 19R, (R)-2-(3-fluorophenyl)-2-(methylamino)cyclohexan-1-one] | 6.8 µM | 20.9% | 8.8% | -10.7% | 11% | – | – | – | – | – | – | – | – | – | – | half-life at 1 μM [1]: 136 min; microsomal CLint at 1 μM [1]: 5 µL/min/mg; half-life at 1 μM [2]: 59.9 min; microsomal CLint at 1 μM [2]: 12 µL/min/mg; half-life at 1 μM [3]: 11.7 min; microsomal CLint at 1 μM [3]: 59 µL/min/mg
2 | COCCN[C@@]1(c2ccccc2)CCCCC1=O [Compound 29R, (R)-2-((2-methoxyethyl)amino)-2-phenylcyclohexan-1-one] | > 23 µM | 19.6% | -16% | -7.1% | -31.9% | > 145 min | < 9.6 µL/min/mg | 30.1 min | 46.1 µL/min/mg | 32.2 min | 43 µL/min/mg | – | – | – | – | –
3 | O=C1CCCC[C@@]1(c1ccccc1)N1CCCC1 [Compound 27S, (S)-2-phenyl-2-(pyrrolidin-1-yl)cyclohexan-1-one] | 1.1 µM | – | – | – | – | > 145 min | < 9.6 µL/min/mg | 41 min | 33.8 µL/min/mg | 53.7 min | 25.8 µL/min/mg | 0.041 µM | 8.5 µM | 10.9 µM | 19.3 µM | –
4 | CC1CCN1C1(c2ccccc2)CCCCC1=O (stereo not shown) [Compound 128mix, 2-(2-methylazetidin-1-yl)-2-phenylcyclohexan-1-one] | 1.9 µM | 81.9% | -2.9% | 19.2% | 23.4% | 87 min | 15.9 µL/min/mg | 20.3 min | 68.3 µL/min/mg | 27.4 min | 50.6 µL/min/mg | – | – | – | – | –
5 | O=C1CCCC[C@]1(c1ccccc1)N1CCCC1 [Compound 27R, (R)-2-phenyl-2-(pyrrolidin-1-yl)cyclohexan-1-one] | 3.1 µM | – | – | – | – | > 145 min | < 9.6 µL/min/mg | 40.4 min | 34.3 µL/min/mg | 55.9 min | 24.8 µL/min/mg | 2.1 µM | 17.3 µM | 21 µM | 18.1 µM | –
